The values that follow come from publication PMC9137581, “Identification of a Novel Class of Anti-Melanogenic Compounds, (Z)-5-(Substituted benzylidene)-3-phenyl-2-thioxothiazolidin-4-one Derivatives, and Their Reactive Oxygen Species Scavenging Activities” (Antioxidants, 2022).

One assay deals with T1, mushroom tyrosinase (Agaricus bisporus, UniProt C7FF04).
T1 construct: purchased Sigma-Aldrich
Description: Kinetic studies of mushroom tyrosinase inhibition (L-DOPA; Lineweaver–Burk and Dixon plots). The assay is classed as biochemical. The settings on record: for mode of action (type of inhibition): Lineweaver–Burk plots; for Ki: determined using Dixon plots, L-DOPA substrate. As for the experimental part: The Michael constants (KM), inhibition constants (Ki), and Lineweaver–Burk and Dixon plots of the analogs were used in order to determine their modes of action. […] The initial rates of dopachrome production in the reaction mixtures were calculated by measuring the increases in absorbance at 492 nm (ΔOD492/min) using a microplate reader (VersaMax™, Molecular Devices, Sunnyvale, CA, USA). The maximal reaction velocity (Vmax) was determined using Lineweaver–Burk plots (plots of the inverse of the reaction rate (1/V) versus the inverse of the substrate concentration (1/[S])) that were obtained using six different L-DOPA concentrations. The mode of action of each analog was determined using the convergence point of the four plot lines.
. Lineweaver–Burk plots were used in order to determine the modes of action of these four analogs (Figure 4). Mushroom tyrosinase inhibition plots were obtained using six different L-DOPA (substrate) concentrations and four different concentrations of each analog. […] On the other hand, the Michaelis–Menten constants (KM) increased upon the increase of the analogs’ concentrations (Table 3). The KM values of the analogs were 1.042, 1.193, 1.433, and 2.159 mM at analog 1 concentrations of 0, 1, 2, and 4 µM; 1.077, 2.117, 2.899, and 4.865 mM at analog 2 concentrations of 0, 2.5, 5, and 10 µM; […]; and 1.030, 1.243, 1.531, and 1.885 mM at analog 6 concentrations of 0, 1, 2, and 4 µM. The mean of the Vmax values that were determined from the Lineweaver–Burk plots was 0.0171 mM/min. In order to determine the inhibition constants (Ki) for the mushroom tyrosinase–analog complexes, the Lineweaver–Burk plots were converted into their corresponding Dixon plots (Figure 5), in which 1/V (where V is the initial reaction velocity) was plotted against the inhibitor concentration [I] at different L-DOPA [S] concentrations.

In another assay the test system is B16F10 cells. Description: Melanin content assay in α-MSH plus IBMX-stimulated cells. The assay is classed as cell-based, murine. The settings on record: for reduction of α-MSH plus IBMX-induced increase in melanin content: 48 h, B16F10 cells; for effect on melanin content compared with kojic acid: analog at 5 µM. On the procedure:
Briefly, B16F10 cells were seeded at a density of 1 × 10^5 cells per well in 6-well plates and allowed to adhere to the well bases under the same conditions that were used for cell culturing. […] In order to determine the melanin contents, the B16F10 cells that were exposed to α-MSH and IBMX for 48 h were rinsed with PBS twice and incubated in 200 µL of 1 N NaOH solution containing 10% dimethyl sulfoxide (DMSO) for 1 h at 60 °C. The cell lysates were transferred to a 96-well plate and the absorbances at 405 nm were measured using a microplate reader (VersaMax™, Molecular Devices, Sunnyvale, CA, USA). These experiments were performed individually in triplicate. B16F10 cells were seeded in 6-well culture plates and pretreated with analogs 1, 3, and 6 at concentrations of 0, 5, 10, or 20 µM and with analog 2 at 0, 2.5, 5, or 10 µM for 1 h. α-Melanocyte-stimulating hormone (α-MSH; 1 µM) and 3-isobutyl-1-methylxanthine (IBMX; 200 µM) were added sequentially in order to enhance melanin production. After incubation for 48 h at 37 °C, the melanin contents were assessed by measuring the well optical densities at 405 nm using a microplate reader. Kojic acid (10 or 20 µM) was used as a positive control.

The nature of assay [1]: ABTS free radical scavenging activity assay. The settings on record: 100 µM, 2 min in the dark. As for the experimental part: ABTS free radical scavenging activity was used to evaluate the antioxidant activities of analogs 1–13, as previously described. […] This ABTS free radical solution was then diluted with absolute methanol to an absorbance of 0.70 ± 0.02 at 734 nm. Aliquots (10 µL) of the test samples (10% DMSO + 90% EtOH) were added at a final concentration of 100 µM to 90 µL of the diluted ABTS free radical solution and incubated for 2 min in the dark at room temperature. Absorbances were then measured at 734 nm using a VersaMax™ microplate reader (Molecular Devices, Sunnyvale, CA, USA). The ABTS free radical scavenging activities of the test analogs were calculated using the following formula:Scavenging activity (%) = (Ac − As) × 100/Ac where Ac is the optical density of the non-treated control and As is the optical density of the tested material.
The effects of analogs 1–13 on ABTS (2,2′-azino-bis(3-ethylbenzothiazoline-6-sulfonic acid)) free radical scavenging activity were investigated using trolox as a positive reference control. The concentrations of the analogs and trolox in the test samples were 100 µM. The free radical scavenging activities were assessed by measuring the optical densities at 734 nm after standing in the dark for 2 min. […] Analogs 7–10, with no hydroxyl groups on the β-phenyl ring, had weak ABTS and DPPH radical scavenging activities.

Assay [2] concerns intracellular ROS in B16F10 cells. Kind of assay: Intracellular ROS scavenging activity assay (DCFH-DA, SIN-1). It is filed as cell-based, murine. The settings on record: ≤ 20 µM, 10 µM SIN-1, B16F10 cells. As for the experimental part: ROS scavenging activity was determined as has previously been described by Ali et al. and Lebel and Bondy. Briefly, DCFH-DA (2′,7′-dichlorodihydrofluorescein-diacetate) (2.5 mM; Molecular Probes, Eugene, OR, USA) mixed with esterase (1.5 units/mL) in a phosphate buffer (50 mM; pH 7.4) was incubated for 30 min at 37 °C and then placed on ice in the dark until it was required. In order to determine their intracellular ROS scavenging activities, B16F10 cells (1 × 10^4/well) were seeded in black 96-well plates and incubated for 24 h. The cells were then co-treated with the analogs and SIN-1 (3-morpholinosydnonimine) (10 µM), as previously described, for 2 h. DCFH-DA (20 µM) was added for 30 min in the dark and the fluorescence intensities of the oxidized DCFH were measured using a microplate reader (Tecan, Männedorf, Switzerland) at excitation and emission wavelengths of 485 and 530 nm, respectively. Trolox was used as the positive control.
We investigated the effects of the analogs on intracellular ROS (reactive oxygen species) because, reportedly, ROS might regulate melanogenesis in melanoma cells. The principle of the intracellular ROS assay that was used is that DCFH-DA (2′,7′-dichlorodihydrofluorescein diacetate) spreads across the cell membrane and is enzymatically hydrolyzed by esterases to DCFH (2′,7′-dichlorodihydrofluorescein), which reacts with ROS in order to generate DCF (2′,7′-dichlorofluorescein), which is fluorescent. Thus, the intracellular ROS scavenging activities of (Z)-BPTT analogs 1–3 and 6 were investigated in vitro using DCFH-DA. SIN-1 (3-morpholinosydnonimine) and trolox were used as a RNS/ROS generator [54] and a positive control, respectively.

T1 sequence (C7FF04 1-392): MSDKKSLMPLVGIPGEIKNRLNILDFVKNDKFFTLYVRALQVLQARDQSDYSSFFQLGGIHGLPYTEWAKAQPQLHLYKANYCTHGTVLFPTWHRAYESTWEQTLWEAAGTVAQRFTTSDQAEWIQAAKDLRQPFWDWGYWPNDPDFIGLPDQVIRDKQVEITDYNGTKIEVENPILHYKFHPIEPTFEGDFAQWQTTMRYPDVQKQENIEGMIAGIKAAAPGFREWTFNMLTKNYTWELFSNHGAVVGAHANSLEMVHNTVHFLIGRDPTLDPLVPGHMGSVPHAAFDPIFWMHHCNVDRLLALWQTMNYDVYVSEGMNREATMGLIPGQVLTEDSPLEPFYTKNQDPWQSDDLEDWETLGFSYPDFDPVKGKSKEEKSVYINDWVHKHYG

As usually defined, the Ki is a dissociation constant, usually derived from enzyme kinetics or from competition with a known ligand. The low end stands for higher affinity, the high end for lower affinity. Regarding `O=C1/C(=C/c2ccc(O)c(O)c2)SC(=S)N1c1ccccc1` [Analog 2, (Z)-5-(3,4-Dihydroxybenzylidene)-3-phenyl-2-thioxothiazolidin-4-one], at mushroom tyrosinase, the “mode of action (type of inhibition)” value is “competitive” and the Ki came out at 3.18 µM. Also, in the assay with B16F10 cells (10 µM), the “melanin suppression relative to kojic acid at 10 µM” value was 4.1 fold and the “reduction of α-MSH plus IBMX-induced increase in melanin content” value is 89.6%. The “suppression of α-MSH plus IBMX-induced melanogenesis compared with kojic acid” value with B16F10 cells (analog at 2.5 µM) was “as effectively as kojic acid at 10 µM”. The “ABTS free radical scavenging activity” value in assay [1] is reported as 96.9%. The “intracellular ROS scavenging activity” value in assay [2] is “significantly and concentration-dependently reduced SIN-1-induced increases in the intracellular ROS activity and it did so to a greater extent than trolox”.
Regarding `COc1ccc(/C=C2\SC(=S)N(c3ccccc3)C2=O)cc1O` [Analog 6, (Z)-5-(3-Hydroxy-4-methoxybenzylidene)-3-phenyl-2-thioxothiazolidin-4-one], at mushroom tyrosinase, the “mode of action (type of inhibition)” value is given as “competitive” and the Ki amounted to 3.23 µM. Also, the “reduction of α-MSH plus IBMX-induced increase in melanin content” value in the assay with B16F10 cells (20 µM) is recorded as 50.9%. In the assay on B16F10 cells, the “effect on melanin content compared with kojic acid” value (“effect … compared with kojic acid” below) was “as effective as kojic acid at 20 µM”. The “intracellular ROS scavenging activity” value in assay [2] is reported as “did not show ROS scavenging activity”.
For `O=C1/C(=C/c2ccc(O)cc2O)SC(=S)N1c1ccccc1` [Analog 3, (Z)-5-(2,4-Dihydroxybenzylidene)-3-phenyl-2-thioxothiazolidin-4-one], on mushroom tyrosinase, the “mode of action (type of inhibition)” value is listed as “competitive” and the Ki was 0.708 µM. Also, in the assay on B16F10 cells (20 µM), the “reduction of α-MSH plus IBMX-induced increase in melanin content” value was 61.3%. Also, the “effect … compared with kojic acid” value in the assay on B16F10 cells is listed as “as effective as kojic acid at 20 µM”. Moreover, in assay [1], the “ABTS free radical scavenging activity” value turned out to be 82.0%.
Take `O=C1/C(=C/c2ccc(O)cc2)SC(=S)N1c1ccccc1` [Analog 1, (Z)-5-(4-Hydroxybenzylidene)-3-phenyl-2-thioxothiazolidin-4-one]: at mushroom tyrosinase, the “mode of action (type of inhibition)” value is listed as “competitive” and the Ki turned out to be 4.67 µM. The “reduction of α-MSH plus IBMX-induced increase in melanin content” value with B16F10 cells (20 µM) is 56.3%. For the same compound, in the assay with B16F10 cells, the “effect … compared with kojic acid” value was “as effective as kojic acid at 20 µM”. Further, in assay [1], the “ABTS free radical scavenging activity (in words)” value was “weak”. In assay [2], the “intracellular ROS scavenging activity” value is “did not show ROS scavenging activity”.
